Source: the NIST ThermoML archive (doi:10.1016/j.fluid.2014.09.014)

Assay: refractive index (other wavelength) (dimensionless); xn = mol fraction of the nth substance listed
Conditions: 101 kPa, Liquid, Standard Abbe refractometry

CC(C)OC(C)C [diisopropyl ether] + CC(C)O
refractive index
Conditions | Wavelength=404.7 nm | Wavelength=435.8 nm | Wavelength=486.1 nm | Wavelength=546.1 nm | Wavelength=587.6 nm | Wavelength=589.3 nm | Wavelength=632.8 nm | Wavelength=644 nm | Wavelength=706.5 nm
298.15 K, x1 = 0.0277 | – | – | – | – | – | 1.37492 | 1.3736 | 1.37329 | 1.37183
298.15 K, x1 = 0.0507 | – | – | – | – | – | 1.37483 | 1.37352 | 1.37322 | 1.37174
298.15 K, x1 = 0.051 | – | – | – | – | – | 1.37489 | 1.37358 | 1.37327 | 1.37179
298.15 K, x1 = 0.0717 | – | – | – | – | – | 1.37462 | 1.37331 | 1.373 | 1.37152
298.15 K, x1 = 0.1528 | – | – | – | – | – | 1.37401 | 1.3727 | 1.3724 | 1.37093
298.15 K, x1 = 0.1553 | – | – | – | – | – | 1.37401 | 1.3727 | 1.3724 | 1.37093
298.15 K, x1 = 0.1938 | – | – | – | – | – | 1.37373 | 1.37243 | 1.37213 | 1.37068
298.15 K, x1 = 0.2029 | – | – | – | – | – | 1.37346 | 1.37215 | 1.37185 | 1.37039
298.15 K, x1 = 0.245 | – | – | – | – | – | 1.37306 | 1.37177 | 1.37147 | 1.37002
298.15 K, x1 = 0.297 | – | – | – | – | – | 1.37259 | 1.3713 | 1.371 | 1.36955
298.15 K, x1 = 0.2973 | – | – | – | – | – | 1.37284 | 1.37156 | 1.37126 | 1.3698
298.15 K, x1 = 0.3068 | – | – | – | – | – | 1.37238 | 1.37108 | 1.37078 | 1.36933
298.15 K, x1 = 0.398 | – | – | – | – | – | 1.37122 | 1.36993 | 1.36964 | 1.36819
298.15 K, x1 = 0.4609 | – | – | – | – | – | 1.37063 | 1.36933 | 1.36903 | 1.36758
298.15 K, x1 = 0.5434 | – | – | – | – | 1.36987 | 1.36981 | 1.36853 | 1.36823 | 1.36678
298.15 K, x1 = 0.6032 | – | – | – | – | 1.3693 | 1.36925 | 1.36797 | 1.36767 | 1.36623
298.15 K, x1 = 0.6371 | – | – | – | – | 1.36894 | 1.36889 | 1.36762 | 1.36731 | 1.36587
298.15 K, x1 = 0.701 | – | – | – | – | 1.36828 | 1.36823 | 1.36695 | 1.36666 | 1.36523
298.15 K, x1 = 0.754 | – | – | – | – | 1.36792 | 1.36786 | 1.36659 | 1.36629 | 1.36485
298.15 K, x1 = 0.791 | – | – | – | – | 1.36756 | 1.3675 | 1.36623 | 1.36593 | 1.3645
298.15 K, x1 = 0.8296 | – | – | – | – | 1.36723 | 1.36717 | 1.36589 | 1.36559 | 1.36417
298.15 K, x1 = 0.8864 | – | – | – | – | 1.367 | 1.36695 | 1.36567 | 1.36537 | 1.36394
298.15 K, x1 = 0.8903 | – | – | – | – | 1.36659 | 1.36653 | 1.36526 | 1.36497 | 1.36354
298.15 K, x1 = 0.9113 | – | – | – | – | 1.3667 | 1.36631 | 1.36504 | 1.36475 | 1.36332
298.15 K, x1 = 0.9547 | – | – | – | – | 1.36596 | 1.36587 | 1.36459 | 1.3643 | 1.36289
298.15 K, x1 = 0.973 | – | – | – | – | 1.3656 | 1.36557 | 1.3643 | 1.364 | 1.36258
298.15 K, x1 = 0.9771 | – | – | – | – | 1.36557 | 1.36551 | 1.36423 | 1.36393 | 1.36281
298.15 K, x1 = 1 | – | – | – | – | 1.36535 | 1.3653 | 1.36402 | 1.36373 | 1.36237
303.15 K, x1 = 0.0277 | 1.38362 | 1.3806 | 1.37718 | 1.37435 | 1.37285 | 1.37279 | 1.37149 | 1.37119 | 1.36973
303.15 K, x1 = 0.0507 | 1.38359 | 1.38056 | 1.37714 | 1.3743 | 1.3728 | 1.37274 | 1.37145 | 1.37115 | 1.36969
303.15 K, x1 = 0.051 | 1.38351 | 1.38049 | 1.37707 | 1.37423 | 1.37273 | 1.37268 | 1.37138 | 1.37107 | 1.36962
303.15 K, x1 = 0.0717 | 1.38322 | 1.3802 | 1.37678 | 1.37395 | 1.37244 | 1.37238 | 1.37109 | 1.37079 | 1.36934
303.15 K, x1 = 0.1528 | 1.38258 | 1.37956 | 1.37614 | 1.37331 | 1.37181 | 1.37176 | 1.37047 | 1.37018 | 1.36872
303.15 K, x1 = 0.1553 | 1.38258 | 1.37956 | 1.37614 | 1.37331 | 1.37181 | 1.37176 | 1.37047 | 1.37018 | 1.36872
303.15 K, x1 = 0.1938 | 1.38229 | 1.37926 | 1.37584 | 1.37303 | 1.37153 | 1.37147 | 1.37018 | 1.36988 | 1.36843
303.15 K, x1 = 0.2029 | 1.38193 | 1.37892 | 1.37549 | 1.37266 | 1.37116 | 1.37111 | 1.36981 | 1.36952 | 1.36807
303.15 K, x1 = 0.245 | 1.38148 | 1.37846 | 1.37506 | 1.37223 | 1.37075 | 1.37069 | 1.36941 | 1.36911 | 1.36767
303.15 K, x1 = 0.297 | 1.38091 | 1.37798 | 1.37446 | 1.37163 | 1.37013 | 1.37008 | 1.3688 | 1.3685 | 1.36705
303.15 K, x1 = 0.2973 | 1.38111 | 1.37809 | 1.37467 | 1.37184 | 1.37036 | 1.37031 | 1.36902 | 1.36872 | 1.36727
303.15 K, x1 = 0.3068 | 1.38076 | 1.37775 | 1.37433 | 1.37149 | 1.37001 | 1.36996 | 1.36867 | 1.36837 | 1.36692
303.15 K, x1 = 0.398 | 1.37951 | 1.3765 | 1.37309 | 1.37025 | 1.36877 | 1.36872 | 1.36744 | 1.36715 | 1.3657
303.15 K, x1 = 0.4609 | 1.37885 | 1.37585 | 1.37245 | 1.3696 | 1.36818 | 1.36807 | 1.3668 | 1.3665 | 1.36501
303.15 K, x1 = 0.5434 | 1.37802 | 1.37503 | 1.37161 | 1.36879 | 1.36731 | 1.36726 | 1.36598 | 1.36567 | 1.36425
303.15 K, x1 = 0.6032 | 1.37738 | 1.3744 | 1.37096 | 1.36815 | 1.36667 | 1.36661 | 1.36533 | 1.36504 | 1.36362
303.15 K, x1 = 0.6371 | 1.37701 | 1.37401 | 1.37059 | 1.36779 | 1.36631 | 1.36626 | 1.36497 | 1.36466 | 1.36326
303.15 K, x1 = 0.701 | 1.37631 | 1.37333 | 1.36992 | 1.36711 | 1.36564 | 1.36559 | 1.36431 | 1.36401 | 1.36259
303.15 K, x1 = 0.754 | 1.37593 | 1.37295 | 1.36954 | 1.36673 | 1.36525 | 1.36519 | 1.36391 | 1.36362 | 1.36221
303.15 K, x1 = 0.791 | 1.37553 | 1.37254 | 1.36913 | 1.36633 | 1.36485 | 1.3648 | 1.36352 | 1.36323 | 1.36182
303.15 K, x1 = 0.8296 | 1.37518 | 1.37221 | 1.3688 | 1.36599 | 1.36453 | 1.36447 | 1.3632 | 1.3629 | 1.36148
303.15 K, x1 = 0.8864 | 1.37495 | 1.37197 | 1.36856 | 1.36576 | 1.3643 | 1.36424 | 1.36297 | 1.36267 | 1.36126
303.15 K, x1 = 0.8903 | 1.37451 | 1.37154 | 1.36813 | 1.36533 | 1.36386 | 1.36381 | 1.36254 | 1.36225 | 1.36083
303.15 K, x1 = 0.9113 | 1.37428 | 1.37131 | 1.36791 | 1.36511 | 1.36365 | 1.3636 | 1.36233 | 1.36203 | 1.36061
303.15 K, x1 = 0.9547 | 1.37382 | 1.37084 | 1.36747 | 1.36465 | 1.36319 | 1.36314 | 1.36187 | 1.36157 | 1.36016
303.15 K, x1 = 0.973 | 1.37347 | 1.3705 | 1.36711 | 1.3643 | 1.36285 | 1.36279 | 1.36153 | 1.36123 | 1.35983
303.15 K, x1 = 0.9771 | 1.37338 | 1.3704 | 1.36702 | 1.36421 | 1.36275 | 1.3627 | 1.36145 | 1.36115 | 1.35972
303.15 K, x1 = 1 | 1.37321 | 1.37022 | 1.36687 | 1.36406 | 1.3626 | 1.36255 | 1.3613 | 1.361 | 1.3596
